In ChEMBL document CHEMBL3813610, “Proteasome inhibition by new dual warhead containing peptido vinyl sulfonyl fluorides” (Bioorg Med Chem, 2016):

Test: Inhibition of 20S proteasome (unknown origin) using Suc-LLVY-AMC as substrate preincubated for 1 hr followed by substrate addition incubated for 1 hr by fluorescence analysis
Design: species or system Homo sapiens

Row | Structure (SMILES) | IC50
1 | CC(C)C[C@@H](CS(=O)(=O)F)NC(=O)[C@H](CC(C)C)NC(=O)[C@H](CC(C)C)NC(=O)OCc1ccccc1 | 0.0891 µM
2 | CC(C)C[C@@H](CS(=O)(=O)F)NC(=O)[C@H](CC(C)C)NC(=O)[C@H](CC(C)C)NC(=O)[C@H](CC(C)C)NC(=O)OCc1ccccc1 | 0.0178 µM
3 | CC(C)C[C@@H](/C=C/S(=O)(=O)F)NC(=O)[C@H](CC(C)C)NC(=O)[C@H](CC(C)C)NC(=O)[C@H](CC(C)C)NC(=O)OCc1ccccc1 | 0.099 µM
4 | CC(C)C[C@@H](/C=C/S(=O)(=O)F)NC(=O)[C@H](CC(C)C)NC(=O)[C@H](CC(C)C)NC(=O)OCc1ccccc1 | 0.218 µM
